Series [1] concerns Caco-2 cell monolayers.
Series [2] relates to Caco-2 cell monolayers. Briefly: Caco-2 cell permeability assay of peramivir with permeability enhancers. The note with it: for Fold-Enhancement Over Control / ng peramivir transported/min: peramivir 15 μg/mL.
Series [3] deals with avian influenza virus (H5N1). The conditions noted are these: cited from earlier work.
For series [4] the following is noted: human, in vivo; cited from earlier work.
A further series deals with influenza A and B. The conditions noted are these: oral formulation, phase III clinical trial; cited from earlier work.
For a further series, the system named is viral neuraminidase. The note with it: depending on the influenza strain; based on concentrations required for 50% inhibition of neuraminidase activity in vitro; cited from earlier work.
For a further series, the system named is Caco-2 cells. The series can be described thus: cytotoxicity of PPS at the concentrations used. The note with it: in the concentrations used (0.001% to 0.01%). Format: cell-based.
[5] abbreviates: enhancer concentration 0.05% in HBSS.
Where [6] appears, read: enhancer concentration 0.10% in HBSS.
Where [7] appears, read: enhancer concentration 0.20% in HBSS.

The source of these data is US9579383B2, “Formulations for enhanced bioavailability of orally administered polar agents” (ALA WAI PHARMA, INC., priority 2007, dated 2017).

Where two headings read alike, the source gives them in different places.

Take `OCC(O)CO` [Glycerol, glycerol]: in the series with Caco-2 cell monolayers [1], the “peramivir permeability (in words)” value is “substantial increase in peramivir permeability”. In addition, the peramivir permeability enhancement result with Caco-2 cell monolayers [1] (human) is “Less than 150%”.

With phosphatidylcholine, the “peramivir permeability enhancement in Caco-2 cell assays (in words)” value in the series on Caco-2 cell monolayers [2] is given as “some potential for peramivir permeability enhancement”. Besides, the “Fold-Enhancement Over Control” value in the series on Caco-2 cell monolayers [2] (setting [5]) worked out at 2.11 fold; with Caco-2 cell monolayers [2] (setting [6]), 2.11 fold; in the series on Caco-2 cell monolayers [2] (setting [7]) it was 7 fold. The ng peramivir transported/min amounted to 0.4 ng/min in the series on Caco-2 cell monolayers [2] (setting [5]), 0.4 ng/min in the series with Caco-2 cell monolayers [2] (setting [6]) and 1.33 ng/min with Caco-2 cell monolayers [2] (setting [7]).

For the molecule `CCC(CC)[C@H](NC(C)=O)[C@@H]1[C@H](O)[C@@H](C(=O)O)C[C@H]1NC(=N)N` [peramivir, (1S,2S,3S,4R)-3-[(1S)-1-Acetamido-2-ethyl-butyl]-4-(diaminomethylideneamino)-2-hydroxy-cyclopentane-1-carboxylic acid], the sensitivity to peramivir result in series [3] was “sensitive”. Besides, in series [4], the oral bioavailability entry is recorded as “very poor oral bioavailability”. The “antiviral activity against influenza A and B” value with influenza A and B is listed as “did not reach statistical significance”. For the same molecule, the “potency as neuraminidase inhibitor relative to oseltamivir (Tamiflu®) and zanimivir” value in the series on viral neuraminidase was 2 to 10 times.

With `CCCCCCCC/C=C\CCCCCCCC(=O)OCCOCC(OCCO)C1OCC(OCCO)C1OCCO` (stereo not drawn) [Tween-80], the “peramivir permeability enhancement in Caco-2 cell assays (in words)” value with Caco-2 cell monolayers [2] is listed as “negative”.

Consider `CN1CCNCC1` [N-Methylpiperazine, N-methylpiperazine], for which the “peramivir permeability enhancement in Caco-2 cell assays (in words)” value with Caco-2 cell monolayers [2] is “negative”.

With `O=C([O-])c1ccccc1O.[Na+]` [sodium salicylate], the “peramivir permeability enhancement in Caco-2 cell assays (in words)” value with Caco-2 cell monolayers [2] is on record as “negative”.

As to `CCCCCCCCCCCCCCCC[N+](C)(C)CCCS(=O)(=O)[O-]` [PPS, 3-(N,N-dimethylpalmitylammonio)propane sulfonate], the “peramivir permeability (in words)” value with Caco-2 cell monolayers [2] (PPS varying from 0.001% to 0.01% final concentration) is given as “substantially increased peramivir permeability”. In the series on Caco-2 cells, the cytotoxicity result is recorded as “not cytotoxic”.
